We go through one substance from US20130216533A1, “BIOLOGICAL MARKERS FOR IDENTIFYING PATIENTS FOR TREATMENT WITH VEGF ANTAGONISTS” (Genentech, Inc., priority 2012, published 2013).

In assay [1] the test system is VDV signature genes in Human Inflammatory Breast Cancer. To be noted: 19 inflammatory breast cancer patients; one dose as single agent; 21 days post-treatment; published micro-array data; cited from earlier work.
Assay [2] relates to metastatic colorectal carcinoma (CRC). Particulars: cited from earlier work.
Assay [3] has the same test system. Nature of the assay: NO16966 first-line metastatic CRC trial, PFS and OS stratified by 22-gene VDV signature. The format is in vivo, human. The method, then:
Sections from archival tumor samples from patients enrolled in the XELOX treatment arms of NO 16966 were evaluated by a pathologist and high tumor content area macro-dissected for subsequent RNA isolation using the FFPE RNA isolation kit (Roche; 7-10 sections per patient). RNA levels were assessed after cDNA synthesis following standard techniques, with the qPCR protocol on the Fluidigm Biomark platform according to the manufacturer's protocol.
Quantitative histological data from various animal experiments were plotted using Microsoft Excel software. Student's t test was applied to compare data sets of interest and differences with p values <0.05 were considered significant. 103 biopsies out of 1017 patients from the XELOX (capecitabine and oxaliplatin)-containing arm in the NO16966 trial were analyzed for the gene expression of VDV genes. qRT-PCR values were normalized by the housekeeping genes and relative to a universal reference sample to derive delta-delta Ct values. Subsequently, the delta-delta Ct value of each of the 22 VDV genes was mean centered and variance scaled to a Z-score.
For each sample i for which all of the VDV genes were analyzed, a VDV signature score (VDVi) was calculated. The VDVi represents a weighted average of z-scores across the analyzed VDV genes and is given by the algorithm:
wherein Zg,i is the standardized z-score of the qRT-PCR value for gene g of sample i and n, in this instance, is 22. The VDVi value provides quantitative information regarding the extent to which the expression of a particular set of genes is collectively overexpressed or underexpressed relative to a centered mean.
To compare the clinical outcomes (PFS and OS) between marker and/or treatment subgroups, log-rank tests and Cox regression were used, with median time calculated by the Kaplan-Meier analysis. All statistical tests were two-sided.
To test if VDV gene expression could correlate with clinical outcomes, we analyzed VDV gene expression levels in available pre-treatment archival tumor tissue from 103 patients (biomarker evaluable subpopulation) that were enrolled in the XELOX-containing arms. Due to the limited quality and amount of RNA from these clinical samples, gene expression was analyzed in a previously designed and validated “angiogenesis” Fluidigm qRT-PCR chip (FIG. 8B) that included 4 different housekeeping genes (for gene expression normalization), VEGF (as a control), and 22 representative proximal and distal VDV genes comprising: (i) pan-vascular markers such as CD31, CD34, and VE-CADH as indicators of MVD; (ii) key VEGF pathway components and proxVDV genes, including VEGFR-1, VEGFR-2, VEGFR-3, EPHRINB2, NRPs, ESM1, NID2, COL4a2, and LAMA4a; and (iii) additional VDV genes that are components of endothelial signaling pathways and potential modulators of VDV biology, including DLL-4, NOTCH1, ALK1, and EGFL7 (see FIG. 9A for validation of this compacted 22 VDV gene signature).
In these patients, the addition of bevacizumab to chemotherapy provided a statistically significant PFS (HR, 0.59; 95% CI, 0.37 to 0.93; p=0.024) and OS benefit (HR, 0.45; 95% CI, 0.23 to 0.85; p=0.015). […] We then tested the correlation between clinical outcomes and “high” or “low” pre-treatment gene expression. […] In contrast, in “VDV high” patients (FIG. 8D, solid lines), the addition of bevacizumab to chemotherapy vs chemotherapy alone provided a marked and significant PFS(HR, 0.36; 95% CI, 0.17 to 0.77; p=0.0079) and OS (HR, 0.31; 95% CI, 0.11 to 0.93; p=0.036) benefit. […] Thus, in this relatively small 103-patient sample set, the higher expression of a collective VDV gene subset correlates specifically with the improved clinical outcome provided by bevacizumab addition to chemotherapy, and has a predictive effect with respect to PFS.

The mark [4] stands for this setting: addition to oxaliplatin-based chemotherapy, Saltz et al. 2008.

As for “bevacizumab: recombinant humanized anti-VEGF monoclonal antibody generated according to Presta et al. (1997)”, the “VDV transcripts post-treatment vs pre-treatment biopsies” value in assay [1] is “clear down regulation of VDV transcripts”. Besides, the “OS differences (secondary endpoint), whole NO16966 study” value in assay [2] (setting [4]) was “did not reach statistical significance”. Further, the “PFS (primary endpoint), whole NO16966 study” value in assay [2] (setting [4]) was “significantly improved”. Besides, the “PFS and OS in metastatic CRC” value in assay [2] (in combination with chemotherapy, Hurwitz et al. 2004) was “increase progression free survival (PFS) and overall survival (OS)”. Besides, the “PFS HR” value in assay [3] (103 biomarker evaluable patients, addition to chemotherapy (XELOX) vs chemotherapy, 95% CI 0.37 to 0.93, p=0.024) is reported as 0.59; in assay [3] ("VDV high" patients, addition to chemotherapy vs chemotherapy alone, 95% CI 0.17 to 0.77, p=0.0079) it was 0.36; in assay [3] ("VDV low" patients, combination with chemotherapy vs chemotherapy alone, 95% CI 0.47 to 1.62, p=0.67) it was 0.88. In addition, the “OS HR” value turned out to be 0.45 in assay [3] (103 biomarker evaluable patients, addition to chemotherapy (XELOX), 95% CI 0.23 to 0.85, p=0.015); 0.31 in assay [3] ("VDV high" patients, 95% CI 0.11 to 0.93, p=0.036); 0.58 in assay [3] ("VDV low" patients, 95% CI 0.25 to 1.33, p=0.2).
